Data reported in PubChem BioAssay AID651816 (Broad Institute, 2012).
Where “and” joins values, the source holds several entries; their conditions need not be identical. Equal values may be shown once. Calls of active or inactive are those of the source. How the calls were made is not given here.

test system: V. cholerae BH1578 luxCDABE luminescence, 6 h; experiment: Cholera quorum light production inducers, absence of autoinducers, BH1578 strain, confirmatory dose response (AID 651816); details: not given

**Q.** For `CCC(CC)NC(=O)Cc1ccc(-c2ccccc2)cc1`, which AC40 is on record?
**A.** 5370 nM

**Q.** Which AC40 does the source give for `CC(C)NC(=O)Cc1ccc(-c2ccccc2)cc1` here?
**A.** 6210 nM

**Q.** Which AC40 does the source give for `CCCCn1nnnc1NCc1ccc(N2CCCC2)cc1` here?
**A.** 5660 nM

**Q.** Which AC40 does the source give for `CCn1nnnc1CCc1ccc(N2CCCC2)cc1` here?
**A.** 1680 nM

**Q.** For `CCCn1nnnc1NCc1ccc(N2CCCC2)cc1`, which AC40 is on record?
**A.** 60.8 nM

**Q.** With `CCn1nnnc1NCc1cccc(N2CCCC2)c1` as the compound, how does the AC40 read?
**A.** 504 nM

**Q.** With `O=C(Cc1ccc(-c2ccccc2)cc1)NC1CCC1` as the compound, how does the AC40 read?
**A.** 510 nM

**Q.** With `CCn1nnnc1NCc1ccc(C(C)C)cc1` as the compound, how does the AC40 read?
**A.** 89.1 nM and 143 nM

**Q.** For `CCCn1nnnc1NCc1ccc(C(C)C)cc1`, which AC40 is on record?
**A.** 793 nM

**Q.** With `CCC(C)NC(=O)Cc1ccc(-c2ccccc2)cc1` (stereo not given) as the compound, how does the AC40 read?
**A.** 4820 nM

**Q.** For `CCn1nnnc1NCc1ccc(N2CCCC2)cc1`, which AC40 is on record?
**A.** 20.9 nM

**Q.** With `CCn1nnnc1NCc1ccc(N2CCCCC2)cc1` as the compound, how does the AC40 read?
**A.** 121 nM

**Q.** For `O=C(Cc1ccc(-c2ccccc2)cc1)NC1CCCC1`, which AC40 is on record?
**A.** 409 nM and 756 nM

**Q.** Which AC40 does the source give for `O=C(Cc1ccc(-c2ccccc2)cc1)NC1CCOCC1` here?
**A.** 2890 nM

**Q.** For `Cn1nnnc1NCc1ccc(N2CCCC2)cc1`, which AC40 is on record?
**A.** 956 nM

**Q.** For `CC(C)c1ccc(CNc2nnnn2C)cc1`, which AC40 is on record?
**A.** 3260 nM

test system: not listed separately; experiment: as above; details: V. cholerae BH1578 luxCDABE luminescence, 6 h; at 80 µM (top of the series)

**Q.** Which activation does the source give for `O=C(Cc1ccccc1F)NC1CCCC1` here?
**A.** 0.028% (inactive)

**Q.** For `COc1ccc(CC(=O)NC2CCCC2)cc1`, which activation is on record?
**A.** 0.353% (inactive)

**Q.** With `CCn1nccc1NCc1ccc(N2CCCC2)cc1` as the compound, how does the activation read?
**A.** 0.056% (inactive)

**Q.** Which activation does the source give for `Fc1ccc(Cn2nnnc2NCc2ccc(N3CCCC3)cc2)cc1` here?
**A.** 0.053% (inactive)

**Q.** Which activation does the source give for `Cc1ccccc1CC(=O)NC1CCCC1` here?
**A.** 0.039% (inactive)

**Q.** Which activation does the source give for `Cc1ccc(Cn2nnnc2NCc2ccc(N3CCCC3)cc2)cc1` here?
**A.** 0.022% (inactive)

**Q.** For `O=C(Cc1ccc(-c2ccccc2)cc1)NC1CCCCC1`, which activation is on record?
**A.** 7.99% (inactive)

**Q.** For `O=C(Cc1ccccc1Cl)NC1CCCC1`, which activation is on record?
**A.** -0.009% (inactive)

**Q.** Which activation does the source give for `CCn1nnnc1NCc1ccccc1N1CCCC1` here?
**A.** -0.011% (inactive)

**Q.** With `O=C(Cc1ccccc1OC(F)(F)F)NC1CCCC1` as the compound, how does the activation read?
**A.** -0.008% (inactive)

**Q.** Which activation does the source give for `O=C(NCc1ccc(-c2ccccc2)cc1)C1CCCC1` here?
**A.** 0.19% (inactive)

**Q.** With `O=C(Cc1cccc(OC(F)(F)F)c1)NC1CCCC1` as the compound, how does the activation read?
**A.** 0.099% (inactive)

**Q.** With `c1ccc(Cn2nnc(NCc3ccc(N4CCCC4)cc3)n2)cc1` as the compound, how does the activation read?
**A.** 0.04% (inactive)

**Q.** With `CCn1nnnc1NCc1cccc(OC)c1` as the compound, how does the activation read?
**A.** 3.31% (inactive)

**Q.** With `CS(=O)(=O)c1ccc(CC(=O)NC2CCCC2)cc1` as the compound, how does the activation read?
**A.** -0.008% (inactive)

**Q.** With `CCn1nccc1/N=C/c1ccc(N2CCCC2)cc1` as the compound, how does the activation read?
**A.** 0.02% (inactive)

**Q.** Which activation does the source give for `c1ccc(-n2nnnc2NCc2ccc(N3CCCC3)cc2)cc1` here?
**A.** 0.051% (inactive)

**Q.** Which activation does the source give for `CCn1nnc(CCc2ccc(N3CCCC3)cc2)n1` here?
**A.** 0.033% (inactive)

**Q.** With `c1ccc(Cn2nnnc2NCc2ccc(N3CCCC3)cc2)cc1` as the compound, how does the activation read?
**A.** 0.055% (inactive)

**Q.** For `CCCn1nnnc1NCc1ccccc1Cl`, which activation is on record?
**A.** -0.011% (inactive)

**Q.** For `CCc1ccccc1NCc1ccc(N2CCCC2)cc1`, which activation is on record?
**A.** 0.047% (inactive)

**Q.** For `O=C(Cc1cccc(F)c1)NC1CCCC1`, which activation is on record?
**A.** 0.665% (inactive)

**Q.** Which activation does the source give for `CCn1nnc(NCc2ccc(C)cc2)n1` here?
**A.** 0.015% (inactive)

**Q.** For `O=C(Cc1ccccc1C(F)(F)F)NC1CCCC1`, which activation is on record?
**A.** -0.032% (inactive)
